Common to all, as to format: cell-based
Holding throughout (parameters): expressed in transfected cells; host or cells: HEK293 cells transfected with VIPR2 in pCDNA3.1 (as described)

For assay [1], the target named is T1, VIPR2 (Homo sapiens, UniProt P41587).
T1 sequence (P41587 24-438): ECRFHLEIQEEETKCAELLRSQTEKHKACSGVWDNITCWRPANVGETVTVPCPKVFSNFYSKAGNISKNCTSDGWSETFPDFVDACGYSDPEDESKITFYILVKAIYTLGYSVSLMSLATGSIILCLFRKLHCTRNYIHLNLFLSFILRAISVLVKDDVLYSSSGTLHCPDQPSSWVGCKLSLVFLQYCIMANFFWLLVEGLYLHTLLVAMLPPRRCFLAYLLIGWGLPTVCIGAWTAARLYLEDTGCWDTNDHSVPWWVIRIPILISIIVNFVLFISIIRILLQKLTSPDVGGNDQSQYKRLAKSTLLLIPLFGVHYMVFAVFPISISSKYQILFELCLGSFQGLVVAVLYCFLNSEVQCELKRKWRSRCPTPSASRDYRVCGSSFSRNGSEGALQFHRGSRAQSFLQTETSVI
In words: Inhibition of VIP-induced β-arrestin recruitment (% Activity Arrestin). From the text:
(§1) In a further non-limiting embodiment of the invention, the ability of a compound to inhibit VIPR2 GPCR activity may be tested, for example, using the PathHunter® eXpress β-Arrestin GPCR system (Discoverx Corporation, Fremont, Calif., US), as used by Chu et al., 2010, Molecular Pharmacol. 7795-101. In this assay, β-Arrestin is fused to the “Enzyme Acceptor” (“EA”), an N-terminal deletion mutant of β-gal, and the GPCR of interest is fused to a smaller (42 amino acids), weakly complementing portion of the β-gal enzyme (termed “ProLink™”). In cells that stably express these fusion proteins, the interaction of β-Arrestin and the GPCR following ligand stimulation forces the complementation of the two β-gal fragments resulting in the formation of a functional enzyme that converts substrate to detectable signal. In the absence of an interaction between the GPCR and β-Arrestin, the enzyme activity is low due to the low affinity of the two enzyme fragments. For example, a nucleic acid encoding VIPR2, for example hVIPR2, may be cloned into the ProLink vector (DiscoveRx) for GPCR-ProLink fusion protein production. Parental HEK293 cells that stably express β-arrestin2-β-gal-EA fusion protein (DiscoveRx) may be detached and transiently transfected with the VIPR2-containing vector using Fugene6 transfection reagent in suspension mode. Transfected cells in assay medium may be plated into test plates, for example at 15,000 cells/25 μl/well. After overnight incubation, 500 nl of an inhibitor or test inhibitor may be introduced into the test plate followed by 2 h incubation at 37° C., 5% CO2. Flash detection reagents may be added at 12.5 μl/well. After 5 min to 1 h of room-temperature incubation, the cell plates may be read on CLIPR (PerkinElmer Life and Analytical Sciences)or Acquest (Molecular Devices, Sunnyvale, Calif.) for luminescence signal.
(§2) A series of compounds were prepared using a synthetic method analogous to that set forth in Scheme 1, above, and then tested for their ability to inhibit VIP-induced cAMP elevation and β-arrestin recruitment.
(§3) A series of compounds were prepared using a synthetic method analogous to that set forth in Scheme 1, above, and then tested for their ability to inhibit VIP-induced cAMP elevation and β-arrestin recruitment, as described herein (Discoverx Corporation, Fremont, Calif., US). Compound activities were also tested in a BRET-based assay, as described herein. The results are shown below in Tables 1-4, above.

Assay [2] deals with T1, VIPR2. In words: Inhibition of VIP-induced cAMP elevation (% Activity cAMP).
From the text: (§4) In a further non-limiting embodiment of the invention, the ability of a compound to inhibit VIPR2 and thereby […] a VIP-induced increase in cAMP may be measured using a Homogeneous Time-Resolved Fluorescence (“HTRF® assay; Cisbio Bioassays) as used in Chu et al., 2010, Molecular Pharmacol. 7795-101. In a method as used in Chu et al., 2010, Molecular Pharmacol. 7795-101, HEK293 cells may be transfected with nucleic acid encoding VIPR2, for example human VIPR2 (“hVIPR2”), for example comprised in a vector such as pCDNA3.1 vector. Successful transformants may then be selected, for example using 800 μg/ml G418. Clonal stable cell lines may then be generated by limited dilution to single cells and then may be clonally expanded and tested for VIP -dependent cAMP response. For the cAMP assay, about 3000-15,000 cells (in about 4-25 μl) may be placed in a well of an assay plate. The next day, inhibitor or test inhibitor and VIP may be added in a volume about 1-2 percent of the initial volume. Assay plates may then be returned to a cell incubator for 30 min before addition of a one-half volume of cAMP conjugate and, relative to the amount of cAMP conjugate, an equal volume of anti-cAMP conjugate (Cisbio). After at least 1 h of room-temperature incubation, HTRF signal may be read, for example using Viewlux or EnVision (PerkinElmer Life and Analytical Sciences, Waltham, Mass.). The ratio of […] at 665 nm and 620 nm times 10,000 may be calculated and plotted.
as §2, §3

Assay [3] addresses T1, VIPR2. In words: % Activity: inhibition of VIP-induced cAMP elevation and β-arrestin recruitment (Table 2).
From the text: as §4, §1, §3

For the compound `O=C(NC[C@@H](O)C[C@@H](Cc1ccccc1)C(=O)N[C@H]1c2ccccc2C[C@H]1O)c1c(Cl)cc(Cl)cc1Cl` [D], in assay [1] (Batch 1), the inhibition (as a rule, the change of the read-out against control, counted positive when it falls) at 0.5 µM worked out at 23.9%; the inhibition at 1 µM turned out to be 25.3%; the inhibition at 5 µM came out at 31.5%. Besides, in assay [2] (Batch 1), the inhibition at 0.5 µM was 17.6%, the inhibition at 1 µM is 14.8% and the inhibition at 5 µM is 12.3%. For the same compound, the “% Activity” value in assay [3] worked out at 21.9%.
For `O=C([C@@H](Cc1ccccc1)C[C@H](O)CNS(=O)(=O)c1ccc([N+](=O)[O-])cc1)N1CCOCC1` [Compound B9B], in assay [1] (Batch 2), the inhibition at 0.5 µM came to 7%, the inhibition at 1 µM is -13% and the inhibition at 5 µM was 0.3%. Further, in assay [2] (Batch 2), the inhibition at 0.5 µM is -5.8%, the inhibition at 1 µM is 10.4% and the inhibition at 5 µM stood at 3%. The “% Activity” value in assay [3] amounted to 1.65%.
As for `CC(C)c1cc(C(C)C)c(S(=O)(=O)NC[C@@H](O)C[C@@H](Cc2ccccc2)C(=O)N[C@H]2c3ccccc3C[C@H]2O)c(C(C)C)c1` [J], in assay [1] (Batch 1), the inhibition at 0.5 µM worked out at 29.7%, the inhibition at 1 µM came out at 30.9% and the inhibition at 5 µM was 8.3%. Moreover, in assay [2] (Batch 1), the inhibition at 0.5 µM was 19.5%, the inhibition at 1 µM came to 18.6% and the inhibition at 5 µM was 90%. Further, the “% Activity” value in assay [3] is reported as 49.15%.
On to `O=C(N[C@H]1c2ccccc2C[C@H]1O)[C@H](Cc1ccccc1)C[C@H](O)CNS(=O)(=O)c1cccc([N+](=O)[O-])c1` [L], for which, in assay [1] (Batch 1), the inhibition at 0.5 µM amounted to 24.2%, the inhibition at 1 µM was 35.1% and the inhibition at 5 µM worked out at 33.4%. Also, in assay [2] (Batch 1), the inhibition at 0.5 µM turned out to be 18.4%, the inhibition at 1 µM is 15.2% and the inhibition at 5 µM is 21.3%. Moreover, in assay [3], the “% Activity” value is reported as 27.35%.
Consider `C=Cc1ccc(C(=O)NC[C@@H](O)C[C@@H](Cc2ccccc2)C(=O)N[C@H]2c3ccccc3C[C@H]2O)cc1` [Compound A24], for which, in assay [1] (Batch 1), the inhibition at 0.5 µM was 2.3%, the inhibition at 1 µM came out at 47.5% and the inhibition at 5 µM turned out to be 1.8%. Besides, in assay [2] (Batch 1), the inhibition at 0.5 µM worked out at 16.1%, the inhibition at 1 µM was 16.5% and the inhibition at 5 µM came out at 23.8%. Moreover, in assay [3], the “% Activity” value was determined as 12.8%.
In the case of `O=C(CCN1C(=O)C=CC1=O)NC[C@@H](O)C[C@@H](Cc1ccccc1)C(=O)N[C@H]1c2ccccc2C[C@H]1O` [Compound A21], in assay [1] (Batch 1), the inhibition at 0.5 µM was found to be 9.9%, the inhibition at 1 µM turned out to be 15.2% and the inhibition at 5 µM is -3.1%. In assay [2] (Batch 1), the inhibition at 0.5 µM amounted to 15.5%, the inhibition at 1 µM was 19% and the inhibition at 5 µM stood at 18.6%. The “% Activity” value in assay [3] came to 7.75%.
As for `CN(C)c1ccc(S(=O)(=O)NC[C@@H](O)C[C@@H](Cc2ccccc2)C(=O)N[C@H]2c3ccccc3C[C@H]2O)cc1` [Compound X083], in assay [1] (Batch 3), the inhibition at 0.5 µM turned out to be 4.2%, the inhibition at 1 µM was -1.6% and the inhibition at 5 µM turned out to be 8.7%. In addition, in assay [2] (Batch 3), the inhibition at 0.5 µM is 9.4%, the inhibition at 1 µM is -1.4% and the inhibition at 5 µM is -3.4%. Further, the “% Activity” value in assay [3] is reported as 2.65%.
In the case of `O=C(NC1CCCC1)[C@H](Cc1ccccc1)C[C@H](O)CNS(=O)(=O)c1ccc([N+](=O)[O-])cc1` [Compound B1A], in assay [1] (Batch 2), the inhibition at 0.5 µM came out at 17.4%, the inhibition at 1 µM was found to be 17.1% and the inhibition at 5 µM turned out to be 9.2%. In assay [2] (Batch 2), the inhibition at 0.5 µM was -2.1%, the inhibition at 1 µM is -4.9% and the inhibition at 5 µM came to 4.7%. For the same compound, the “% Activity” value in assay [3] amounted to 6.95%.
With `O=C(N[C@H]1c2ccccc2C[C@H]1O)[C@H](Cc1ccccc1)C[C@H](O)CNS(=O)(=O)c1ccc(C(=O)N2CCCCC2)cc1` [Compound X101], in assay [1] (Batch 3), the inhibition at 0.5 µM was found to be 0%, the inhibition at 1 µM is -17.3% and the inhibition at 5 µM was -12.3%. In assay [2] (Batch 3), the inhibition at 0.5 µM is -6.3%, the inhibition at 1 µM was -7.3% and the inhibition at 5 µM was -1.4%. For the same compound, the “% Activity” value in assay [3] was −6.85%.
`O=C(NCc1ccccc1)[C@@H](Cc1ccccc1)C[C@H](O)CNS(=O)(=O)c1ccc([N+](=O)[O-])cc1` [Compound B3B]: in assay [1] (Batch 2), the inhibition at 0.5 µM is -0.3%, the inhibition at 1 µM was -4.1% and the inhibition at 5 µM turned out to be 7.2%. In assay [2] (Batch 2), the inhibition at 0.5 µM is -1%, the inhibition at 1 µM was 1.5% and the inhibition at 5 µM amounted to 4.9%. For the same compound, in assay [3], the “% Activity” value came out at 6.05%.
Regarding `CCCCCNc1ccc(S(=O)(=O)NC[C@@H](O)C[C@@H](Cc2ccccc2)C(=O)N[C@H]2c3ccccc3C[C@H]2O)cc1` [Compound X087], in assay [1] (Batch 3), the inhibition at 0.5 µM was 2.8%, the inhibition at 1 µM was determined as 2.3% and the inhibition at 5 µM turned out to be 11.3%. In assay [2] (Batch 3), the inhibition at 0.5 µM worked out at 10.8%, the inhibition at 1 µM was 19.1% and the inhibition at 5 µM is 19.1%. The “% Activity” value in assay [3] came to 15.2%.
For `O=C(NN1CCCCC1)[C@@H](Cc1ccccc1)C[C@H](O)CNS(=O)(=O)c1ccc([N+](=O)[O-])cc1` [Compound B6B], in assay [1] (Batch 2), the inhibition at 0.5 µM is -0.9%, the inhibition at 1 µM is 3.3% and the inhibition at 5 µM worked out at 4.7%. Besides, in assay [2] (Batch 2), the inhibition at 0.5 µM is 9.2%, the inhibition at 1 µM came to 12.3% and the inhibition at 5 µM came out at 6%. Moreover, the “% Activity” value in assay [3] was found to be 5.35%.
Consider `O=C(NC1CCCC1)[C@@H](Cc1ccccc1)C[C@H](O)CNS(=O)(=O)c1ccc([N+](=O)[O-])cc1` [Compound B1B], for which, in assay [1] (Batch 2), the inhibition at 0.5 µM was -5.7%, the inhibition at 1 µM is -6.1% and the inhibition at 5 µM amounted to 1.3%. Further, in assay [2] (Batch 2), the inhibition at 0.5 µM is -7.5%, the inhibition at 1 µM is -2.5% and the inhibition at 5 µM is -0.3%. Further, the “% Activity” value in assay [3] is listed as 0.5%.

Values taken from patent US20150239831A1, “INHIBITORS OF CENTRAL NERVOUS SYSTEM VASOACTIVE INHIBITORY PEPTIDE RECEPTOR 2” (The Trustees Of Columbia University In The City Of New York, priority 2012, published 2015).
